Laboratory results published in patent US9670201B2, “Methyl- and trifluoromethyl-substituted pyrrolopyridine modulators of RORC2 and methods of use thereof” (Pfizer Inc., priority 2014, dated 2017).
pIC50: −log10 of the molar value.

Biological target: RORC2 ligand binding domain (6-His-RORC2 LBD) (Homo sapiens (Human), UniProt P51449)
Assay: Co-activator recruitment by TR-FRET
Assay type: biochemical
Settings: 6-His-RORC2 LBD / SRC1-2 coactivator peptide, Table 1

RORC2 ligand binding domain (6-His-RORC2 LBD), sequence (P51449 269-508): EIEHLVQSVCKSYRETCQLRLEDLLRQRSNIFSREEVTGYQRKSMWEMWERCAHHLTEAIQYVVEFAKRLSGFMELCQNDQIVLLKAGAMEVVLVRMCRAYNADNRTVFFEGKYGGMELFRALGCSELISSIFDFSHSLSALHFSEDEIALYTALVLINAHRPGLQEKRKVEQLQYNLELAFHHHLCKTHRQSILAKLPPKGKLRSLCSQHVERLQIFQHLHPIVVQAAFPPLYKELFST

Row | SMILES | pIC50
1 | Cc1c(NC(=O)c2cccc(C#N)c2)cnc2c1c([C@H]1C[C@H](C)N(C(=O)C3CCCC3)C[C@H]1C)cn2C (relative stereo) [Example 97, rel-3-cyano-N-(3-((2S,4S,5S)-1-(cyclopentanecarbonyl)-2,5-dimethylpiperidin-4-yl)-1,4-dimethyl-1H-pyrrolo[2,3-b]pyridin-5-yl)benzamide] | 7.73
2 | Cc1c(NC(=O)c2cccc(C#N)c2)cnc2c1c(C1CCN(C(=O)c3cccc4c3CCC4)CC1)cn2C [Example 34, 3-cyano-N-(3-(1-(2,3-dihydro-1H-indene-4-carbonyl)piperidin-4-yl)-1,4-dimethyl-1H-pyrrolo[2,3-b]pyridin-5-yl)benzamide] | 8.24
3 | COc1ccc(C(=O)Nc2cnc3c(c(C4CCN(C(=O)C(C)C)CC4)cn3C)c2C(F)(F)F)cc1Cl [Example 10, 3-chloro-N-(3-(1-isobutyrylpiperidin-4-yl)-1-methyl-4-(trifluoromethyl)-1H-pyrrolo[2,3-b]pyridin-5-yl)-4-methoxybenzamide] | 8.46
4 | Cc1c(NC(=O)c2cccc(C#N)c2)cnc2c1c(C1CCN(C(=O)[C@H](C)C34CC(C3)C4)CC1)cn2C [Example 50, (R)—N-(3-(1-(2-(bicyclo[1.1.1]pentan-1-yl)propanoyl)piperidin-4-yl)-1,4-dimethyl-1H-pyrrolo[2,3-b]pyridin-5-yl)-3-cyanobenzamide] | 8.12
5 | CC(C)C(=O)N1C[C@H]2CC[C@@H](C1)[C@@H]2c1cn(C)c2ncc(NC(=O)c3cccc(C#N)c3)c(C(F)(F)F)c12 [Example 77, 3-cyano-N-(3-((1R,5S,8r)-3-isobutyryl-3-azabicyclo[3.2.1]octan-8-yl)-1-methyl-4-(trifluoromethyl)-1H-pyrrolo[2,3-b]pyridin-5-yl)benzamide] | 8.28
6 | Cn1cc(C2CCN(C(=O)CC3CCCCC3)CC2)c2c(C(F)(F)F)c(NC(=O)c3cccc(C#N)c3)cnc21 [Example 20, 3-cyano-N-(3-(1-(2-cyclohexylacetyl)piperidin-4-yl)-1-methyl-4-(trifluoromethyl)-1H-pyrrolo[2,3-b]pyridin-5-yl)benzamide] | 8.28
7 | Cc1c(NC(=O)c2cccc(C#N)c2)cnc2c1c(C1CCN(C(=O)[C@H]3CCC[C@@H]3C)CC1)cn2C (single isomer, unassigned) [Example 46] | 7.79
8 | COc1cc(Cl)cc(C(=O)Nc2cnc3c(c(C4CCN(C(=O)[C@H](C)C(C)(C)C)CC4)cn3C)c2C)c1 [Example 42, (R)-3-chloro-N-(1,4-dimethyl-3-(1-(2,3,3-trimethylbutanoyl)piperidin-4-yl)-1H-pyrrolo[2,3-b]pyridin-5-yl)-5-methoxybenzamide] | 8.12
9 | Cc1c(NC(=O)c2cccc(C#N)c2)cnc2c1c(C1CCN(C(=O)[C@H](C)C(C)C)CC1)cn2C [Example 37, (R)-3-cyano-N-(3-(1-(2,3-dimethylbutanoyl)piperidin-4-yl)-1,4-dimethyl-1H-pyrrolo[2,3-b]pyridin-5-yl)benzamide] | 7.94
10 | Cn1cc(C2[C@@H]3CC[C@H]2CN(C(=O)C2CCCC2)C3)c2c(C(F)(F)F)c(NC(=O)c3cccc(C#N)c3)cnc21 (stereo partly drawn) [Example 79, 3-cyano-N-{3-((1R,5S,8r)-3-(cyclopentanecarbonyl)-3-azabicyclo[3.2.1]octan-8-yl]-1-methyl-4-(trifluoromethyl)-1H-pyrrolo[2,3-b]pyridin-5-yl}benzamide] | 7.41

Further compounds by rising pIC50, results first:

Row | pIC50 | SMILES
11 | 7.38 | Cc1c(NC(=O)c2cc(O)cc(C#N)c2)cnc2c1c([C@@H]1CCN(C(=O)C3CCCC3)C(C)(C)C1)cn2C [Example 64, (R)-3-cyano-N-(3-(1-(cyclopentanecarbonyl)-2,2-dimethylpiperidin-4-yl)-1,4-dimethyl-1H-pyrrolo[2,3-b]pyridin-5-yl)-5-hydroxybenzamide]
12 | 7.93 | CC(C)C(=O)N1CCC(c2cn(C)c3ncc(NC(=O)c4ccc(F)c(Cl)c4)c(C(F)(F)F)c23)CC1 [Example 12, 3-chloro-4-fluoro-N-(3-(1-isobutyrylpiperidin-4-yl)-1-methyl-4-(trifluoromethyl)-1H-pyrrolo[2,3-b]pyridin-5-yl)benzamide]
13 | 8.01 | COc1cc(Cl)cc(C(=O)Nc2cnc3c(c([C@@H]4CCN(C(=O)C(C)C)C(C)(C)C4)cn3C)c2C)c1 [Example 62, (R)-3-chloro-N-(3-(1-isobutyryl-2,2-dimethylpiperidin-4-yl)-1,4-dimethyl-1H-pyrrolo[2,3-b]pyridin-5-yl)-5-methoxybenzamide]
14 | 8.16 | Cc1c(NC(=O)c2cccc(C#N)c2)cnc2c1c(C1CCN(C(=O)[C@H](C)C3CCCC3)CC1)cn2C [Example 51, (R)-3-cyano-N-(3-(1-(2-cyclopentylpropanoyl)piperidin-4-yl)-1,4-dimethyl-1H-pyrrolo[2,3-b]pyridin-5-yl)benzamide]
15 | 8.21 | Cc1c(NC(=O)c2cccc(C#N)c2)cnc2c1c(C1CCN(C(=O)[C@@H]3CCC[C@H]3C(C)C)CC1)cn2C (single isomer, unassigned) [Example 49]
16 | 8.24 | Cn1cc(C2CCN(C(=O)CC3CC3)CC2)c2c(C(F)(F)F)c(NC(=O)c3cccc(C#N)c3)cnc21 [Example 24, 3-cyano-N-(3-(1-(2-cyclopropylacetyl)piperidin-4-yl)-1-methyl-4-(trifluoromethyl)-1H-pyrrolo[2,3-b]pyridin-5-yl)benzamide]
17 | 8.25 | Cc1c(NC(=O)c2cc(O)cc(C#N)c2)cnc2c1c(C1CCN(C(=O)[C@H](C)C(C)(C)C)CC1)cn2C [Example 56, (R)-3-cyano-N-(1,4-dimethyl-3-(1-(2,3,3-trimethylbutanoyl)piperidin-4-yl)-1H-pyrrolo[2,3-b]pyridin-5-yl)-5-hydroxybenzamide]
18 | 8.27 | CC(C)C(=O)N1CCC(c2cn(C)c3ncc(NC(=O)c4ccc(F)c(C#N)c4)c(C(F)(F)F)c23)CC1 [Example 9, 3-cyano-4-fluoro-N-(3-(1-isobutyrylpiperidin-4-yl)-1-methyl-4-(trifluoromethyl)-1H-pyrrolo[2,3-b]pyridin-5-yl)benzamide]
19 | 8.29 | CC(C)C(=O)N1CC[C@@H](c2cn(C)c3ncc(NC(=O)c4cccc(C#N)c4F)c(C(F)(F)F)c23)[C@@H](C)C1 [Example 82, 3-cyano-2-fluoro-N-(3-((3R,4R)-1-isobutyryl-3-methylpiperidin-4-yl)-1-methyl-4-(trifluoromethyl)-1H-pyrrolo[2,3-b]pyridin-5-yl)benzamide]
20 | 8.30 | COc1cc(Cl)cc(C(=O)Nc2cnc3c(c(C4CCN(C(=O)C(C)C)CC4)cn3C)c2C(F)(F)F)c1 [Example 13, 3-chloro-N-(3-(1-isobutyrylpiperidin-4-yl)-1-methyl-4-(trifluoromethyl)-1H-pyrrolo[2,3-b]pyridin-5-yl)-5-methoxybenzamide]
21 | 8.33 | C[C@@H](C(=O)N1CCC(c2cn(C)c3ncc(NC(=O)c4cc(O)cc(C#N)c4)c(C(F)(F)F)c23)CC1)C(C)(C)C [Example 54, (R)-3-cyano-5-hydroxy-N-(1-methyl-4-(trifluoromethyl)-3-(1-(2,3,3-trimethylbutanoyl)piperidin-4-yl)-1H-pyrrolo[2,3-b]pyridin-5-yl)benzamide]
